The values below come from patent publication US20050282743A1, “Molecular interactions in cells” (Arbor Vita Corporation, priority 2001, published 2005).

Read-outs that look alike come from different tables or passages of the source. Peptide text beside a SMILES is read from it. * marks the point of attachment. Biotin = O=C1N[C@H]2[C@H](CS[C@H]2CCCCC(=O)*)N1

The target in experiment [1] is T1, PDZ-domain polypeptide (GST/PDZ fusion protein) (Homo sapiens, UniProt O75970).
T1 construct: made in house; host or cells: E. coli (DH5alpha, BL21 or JM109)
Briefly: Apparent affinity (Kd) by titration of PL peptide in the G assay. The format is binding. A digest of the protocol: (§1)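 A fixed concentration of GST/PDZ fusion protein, 5 ug/ml by default, was mixed in solution with increasing labeled PL peptide (e.g. 0.1 uM-1 mM). Reaction times ranged from 10 minutes to 2 days at 4-37° C. Complexes were separated from free peptide and detected via the label as in the G assay, apparent affinity coming from the saturating concentration.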

Experiment [2] has as its target T2, PDZ-domain polypeptide (GST/PDZ fusion protein) (Homo sapiens, UniProt Q02410).
T2 construct: made in house; host or cells: E. coli (DH5alpha, BL21 or JM109)
T2 sequence (Q02410 1-837): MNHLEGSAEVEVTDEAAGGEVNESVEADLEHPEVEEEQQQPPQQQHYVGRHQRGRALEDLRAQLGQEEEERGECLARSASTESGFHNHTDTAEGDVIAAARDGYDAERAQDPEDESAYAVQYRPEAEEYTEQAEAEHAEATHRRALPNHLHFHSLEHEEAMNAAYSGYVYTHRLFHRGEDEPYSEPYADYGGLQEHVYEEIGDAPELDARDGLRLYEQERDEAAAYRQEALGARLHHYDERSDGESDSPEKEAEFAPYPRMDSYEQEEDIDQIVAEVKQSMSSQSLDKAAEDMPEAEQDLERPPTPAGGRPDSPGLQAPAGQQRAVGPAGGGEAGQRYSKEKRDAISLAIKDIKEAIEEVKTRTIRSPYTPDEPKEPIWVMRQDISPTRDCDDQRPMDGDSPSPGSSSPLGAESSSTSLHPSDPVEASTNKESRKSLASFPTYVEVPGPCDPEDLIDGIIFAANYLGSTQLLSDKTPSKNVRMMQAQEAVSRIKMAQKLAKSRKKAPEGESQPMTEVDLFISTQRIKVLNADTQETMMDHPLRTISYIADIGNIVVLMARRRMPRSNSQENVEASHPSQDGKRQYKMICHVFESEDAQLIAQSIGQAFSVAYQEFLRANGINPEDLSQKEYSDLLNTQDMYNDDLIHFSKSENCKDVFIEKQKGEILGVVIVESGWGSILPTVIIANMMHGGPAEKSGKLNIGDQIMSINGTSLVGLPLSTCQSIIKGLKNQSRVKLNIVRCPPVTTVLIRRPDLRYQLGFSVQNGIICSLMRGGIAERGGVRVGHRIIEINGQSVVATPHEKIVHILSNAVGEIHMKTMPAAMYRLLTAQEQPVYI
The description is as above. Conditions: PDZ Mint 1, PDZ Domain 1, 2. The format is binding. Summed up: as §1

T1 sequence (O75970 whole entry, the tested form may be a part): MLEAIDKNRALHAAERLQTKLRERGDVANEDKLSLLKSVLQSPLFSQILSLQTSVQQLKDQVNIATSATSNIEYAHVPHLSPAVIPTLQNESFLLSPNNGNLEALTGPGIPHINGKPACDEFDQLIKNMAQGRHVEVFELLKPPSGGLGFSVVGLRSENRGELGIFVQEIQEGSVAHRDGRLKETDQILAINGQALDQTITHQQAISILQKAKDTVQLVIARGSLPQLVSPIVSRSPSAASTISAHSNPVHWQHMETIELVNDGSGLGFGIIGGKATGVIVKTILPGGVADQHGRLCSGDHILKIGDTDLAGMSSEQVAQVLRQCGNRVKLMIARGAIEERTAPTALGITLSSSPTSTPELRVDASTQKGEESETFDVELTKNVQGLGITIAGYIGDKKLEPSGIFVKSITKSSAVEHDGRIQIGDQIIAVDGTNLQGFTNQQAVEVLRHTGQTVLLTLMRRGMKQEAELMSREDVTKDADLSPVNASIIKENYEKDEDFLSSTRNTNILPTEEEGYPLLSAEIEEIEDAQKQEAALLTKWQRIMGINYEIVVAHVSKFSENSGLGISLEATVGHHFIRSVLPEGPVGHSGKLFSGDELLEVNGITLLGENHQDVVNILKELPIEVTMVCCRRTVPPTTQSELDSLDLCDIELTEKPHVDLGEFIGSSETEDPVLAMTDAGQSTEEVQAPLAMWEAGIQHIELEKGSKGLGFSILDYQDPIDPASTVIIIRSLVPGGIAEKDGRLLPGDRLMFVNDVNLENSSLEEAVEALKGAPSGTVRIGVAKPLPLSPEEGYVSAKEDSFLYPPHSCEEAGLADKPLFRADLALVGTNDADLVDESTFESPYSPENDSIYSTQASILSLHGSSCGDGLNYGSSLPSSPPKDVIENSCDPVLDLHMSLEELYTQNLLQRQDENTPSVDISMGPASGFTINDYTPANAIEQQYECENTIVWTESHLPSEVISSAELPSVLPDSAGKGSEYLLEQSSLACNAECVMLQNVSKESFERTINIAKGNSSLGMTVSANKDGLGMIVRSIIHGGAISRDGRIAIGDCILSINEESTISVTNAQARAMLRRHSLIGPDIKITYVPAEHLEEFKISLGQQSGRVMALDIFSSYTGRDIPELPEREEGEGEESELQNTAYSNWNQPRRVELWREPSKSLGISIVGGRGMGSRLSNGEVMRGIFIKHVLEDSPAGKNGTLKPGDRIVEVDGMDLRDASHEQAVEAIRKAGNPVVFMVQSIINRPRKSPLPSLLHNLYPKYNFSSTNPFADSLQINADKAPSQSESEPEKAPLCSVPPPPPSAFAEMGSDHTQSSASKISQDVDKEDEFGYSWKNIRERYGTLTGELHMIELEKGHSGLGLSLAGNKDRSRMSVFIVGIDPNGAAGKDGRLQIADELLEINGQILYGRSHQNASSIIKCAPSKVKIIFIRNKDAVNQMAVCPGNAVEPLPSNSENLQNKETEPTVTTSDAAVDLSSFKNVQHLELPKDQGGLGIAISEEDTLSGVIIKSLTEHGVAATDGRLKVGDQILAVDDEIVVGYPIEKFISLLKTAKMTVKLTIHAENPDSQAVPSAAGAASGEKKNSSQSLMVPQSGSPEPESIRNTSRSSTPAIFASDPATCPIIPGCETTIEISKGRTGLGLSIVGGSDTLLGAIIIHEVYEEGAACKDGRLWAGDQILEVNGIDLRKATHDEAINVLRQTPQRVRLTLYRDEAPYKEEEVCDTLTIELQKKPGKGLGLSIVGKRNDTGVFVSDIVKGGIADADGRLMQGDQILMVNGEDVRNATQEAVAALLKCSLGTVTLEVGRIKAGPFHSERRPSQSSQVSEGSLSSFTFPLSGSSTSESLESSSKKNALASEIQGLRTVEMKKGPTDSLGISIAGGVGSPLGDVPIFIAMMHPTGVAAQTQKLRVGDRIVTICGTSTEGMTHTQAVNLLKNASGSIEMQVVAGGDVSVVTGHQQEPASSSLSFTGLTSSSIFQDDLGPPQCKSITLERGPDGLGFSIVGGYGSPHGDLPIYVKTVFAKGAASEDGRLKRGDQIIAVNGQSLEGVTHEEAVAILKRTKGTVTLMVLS

Turning to `CC[C@H](C)[C@H](NC(=O)[C@H](C)NC(=O)[C@H](CC(C)C)NC(=O)[C@H](Cc1c[nH]c2ccccc12)NC(=O)[C@H](Cc1c[nH]cn1)NC(=O)[C@H](CCC(N)=O)NC(=O)[C@H](CC(C)C)NC(=O)[C@H](CCC(N)=O)NC(=O)[C@H](Cc1ccccc1)NC(=O)[C@H](CCC(N)=O)NC(=O)[C@H](CCCNC(=N)N)NC(=O)[C@@H](NC(=O)[C@H](CC(=O)O)NC(=O)[C@H](CCCNC(=N)N)NC(=O)[C@H](CCC(N)=O)NC(=O)[C@H](C)NC(=O)[C@@H](NC(=O)[C@H](CC(C)C)NC(=O)[C@H](Cc1c[nH]cn1)NC(=O)[C@H](Cc1c[nH]cn1)NC(=O)CCCC[C@@H]1SC[C@@H]2NC(=O)N[C@@H]21)C(C)C)[C@@H](C)CC)C(=O)O` [noradrenaline transporter] (Biotin-HHLVAQRDIRQFQLQHWLAI-OH; C-terminus assumed), the Kd in experiment [1] (Peptide Optimal Conc (Kd by titration of the PL peptide), PDZ MUPP-1, PDZ Domain 3) turned out to be 400 nM; in experiment [1] (Peptide Optimal Conc (Kd by titration of the PL peptide), PDZ MUPP-1, PDZ Domain 7), 800 nM; in experiment [1] (Peptide Optimal Conc (Kd by titration of the PL peptide), PDZ MUPP-1, PDZ Domain 9), 700 nM; in experiment [2] (Peptide Optimal Conc (Kd by titration of the PL peptide)), 500 nM.
With `CC[C@H](C)[C@H](NC(=O)[C@H](Cc1ccc(O)cc1)NC(=O)[C@H](CC(C)C)NC(=O)[C@H](CCC(N)=O)NC(=O)[C@H](Cc1c[nH]cn1)NC(=O)[C@H](CO)NC(=O)[C@H](C)NC(=O)[C@H](CC(C)C)NC(=O)[C@@H](NC(=O)[C@H](CC(=O)O)NC(=O)[C@H](CCSC)NC(=O)[C@H](Cc1ccccc1)NC(=O)[C@@H]1CCCN1C(=O)[C@H](CCCNC(=N)N)NC(=O)[C@@H](NC(=O)[C@H](CC(C)C)NC(=O)[C@H](CC(N)=O)NC(=O)[C@H](CC(=O)O)NC(=O)[C@@H](NC(=O)[C@H](CO)NC(=O)CCCC[C@@H]1SC[C@@H]2NC(=O)N[C@@H]21)[C@@H](C)O)C(C)C)[C@@H](C)O)C(=O)O` [presenilin-2] (Biotin-STDNLVRPFMDTLASHQLYI-OH; C-terminus assumed), the Kd was 4000 nM in experiment [1] (PDZ MUPP-1, PDZ Domain 7, titration of the PL peptide, read-out: Peptide Optimal Conc (Kd, dissociation constant)) and 6000 nM in experiment [2] (titration of the PL peptide, read-out: Peptide Optimal Conc (Kd, dissociation constant)).
